Patent US9120728B2, “Modulators of cortical dopaminergic- and NMDA-receptor-mediated glutamatergic neurotransmission” (INTEGRATIVE RESEARCH LABORATORIES SWEDEN AB, priority 2011, dated 2015)

Key:
[1] = system: d-amphetamine pre-treated rats; assay: Reduction of amphetamine-induced hyper-locomotion; format: in vivo; conditions: Rattus norvegicus; rats pre-treated with d-amphetamine 1.5 mg/kg i.p.; test compound 0-100 μmol/kg s.c.; distance during last 45 minutes of one hour
Source text: The increase in activity after treatment with d-amphetamine is a standard model of hyperdopaminergia. In this model, dopaminergic neurotransmission is increased by systemic administration of d-amphetamine at a dose that is sufficiently high to produce a large increase in locomotor activity. The ability of a compound to antagonize this hyperactivity reflects anti-dopaminergic properties. Furthermore, antagonism of d-amphetamine induced hyperactivity is widely used as a standard assay of antipsychotic activity (see Psychopharmacology 4th Generation of progress Chapter 68, p 793-795).
(§1) Behavioural activity is measured using eight Digiscan activity monitors (RXYZM (16) TAO, Omnitech Electronics, Columbus, Ohio, USA), connected to an Omnitech Digiscan analyzer and an Apple Macintosh computer equipped with a digital interface board (NB DIO-24, National Instruments, USA). […]
(§2) Behavioural data from each activity monitor, representing the position (horizontal center of gravity and vertical activity) of the animal at each time, are recorded at a sampling frequency of 25 Hz and collected using a custom written LABView™ application. The data from each recording session are stored and analyzed with respect to distance traveled. […]
ED50 value for reduction of amphetamine-induced hyper-locomotion is calculated by curve fitting. […]

MK-801 pre-treated rats = assay: Reduction of MK-801-induced hyper-locomotion; format: in vivo; conditions: Rattus norvegicus; MK-801 0.7 mg/kg i.p. 90 minutes before test compound; locomotor activity between 45 and 60 minutes after administration; 0-100 μmol/kg s.c.
Source text: Reduction of MK-801-Induced Hyper-Locomotion Another animal model of antipsychotic activity is based on administration of the glutamate antagonist MK-801. Glutamate antagonists (i.e. NMDA antagonists), can induce psychoses in man (see Psychopharmacology, 4th Generation of progress Chapter 101, p. 1205 and 1207) and induce behavioural aberrations in animals. Thus, the ability of a drug to affect schizophrenia and psychotic states can be measured using behavioural models based on experimentally-induced hypoglutamatergic states. In this study the NMDA antagonist MK-801 (0.7 mg/kg i.p.) was used to create a hypoglutamatergic state where the rats display abnormal, hyperactive behaviour.
as §1, §2

CCCNCCOc1cc(F)cc(S(C)(=O)=O)c1 [Example 1, N-[2-(3-fluoro-5-methylsulfonyl-phenoxy)ethyl]propan-1-amine]
ED50 [1]: 24 µmol/kg | ED50 (MK-801 pre-treated rats): 5.6 µmol/kg
